PubChem BioAssay AID1963964 (Molecular Pharmacology Branch, DTP, NCI, 2024)

Tested on: 997726-040-R-J2-PDC tumor spheroids, viability
Experiment: Anticancer human tumor 997726-040-R-J2-PDC patient-derived squamous cell lung carcinoma cell line growth inhibition [PI3K]
Details: spheroids with HUVEC and MSC; for IC50: curve of first compound; for viability, T/C: stronger effect = lower value
Method in brief: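 High-throughput combination screen: PI3K inhibitors crossed with targeted small molecules on complex spheroids of tumor cells, HUVEC and MSCs at 37 degrees C, 5% CO2. Top concentration was at or near clinical Cmax (otherwise 10 microM), with half-log decrements.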

[1] = second compound 0.00316 µM, first compound 0.0316 µM
[2] = second compound 0.00316 µM, first compound 0.1 µM
[3] = second compound 0.01 µM, first compound 0.0316 µM
[4] = second compound 0.01 µM, first compound 0.1 µM
[5] = second compound 0.0316 µM, first compound 0.0316 µM
[6] = second compound 0.0316 µM, first compound 0.1 µM
[7] = second compound 0.1 µM, first compound 0.0316 µM
[8] = second compound 0.1 µM, first compound 0.1 µM
[9] = second compound 0.316 µM, first compound 0.0316 µM
[10] = second compound 0.316 µM, first compound 0.1 µM
[11] = second compound 1 µM, first compound 0.0316 µM
[12] = second compound 1 µM, first compound 0.1 µM
[13] = second compound 0.0316 µM, first compound 0.316 µM
[14] = second compound 0.0316 µM, first compound 1 µM
[15] = second compound 0.0316 µM, first compound 3.16 µM
[16] = second compound 0.0316 µM, first compound 10 µM
[17] = second compound 0.1 µM, first compound 0.316 µM
[18] = second compound 0.1 µM, first compound 1 µM
[19] = second compound 0.1 µM, first compound 3.16 µM
[20] = second compound 0.1 µM, first compound 10 µM
[21] = second compound 0.316 µM, first compound 0.316 µM
[22] = second compound 0.316 µM, first compound 1 µM
[23] = second compound 0.316 µM, first compound 3.16 µM
[24] = second compound 0.316 µM, first compound 10 µM
[25] = second compound 1 µM, first compound 0.316 µM
[26] = second compound 1 µM, first compound 1 µM
[27] = second compound 1 µM, first compound 3.16 µM
[28] = second compound 1 µM, first compound 10 µM
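Further: spheroids exposed to compounds for seven days before readout.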

In the case of `CC(=O)c1c(C)c2cnc(Nc3ccc(N4CCNCC4)cn3)nc2n(C2CCCC2)c1=O` + CC(Nc1ccc2c(c1)OCCn1cc(N3C(=O)OCC3C(F)F)nc1-2)C(N)=O, the IC50 (second compound 0.00316 µM) is reported as greater than 100 nM, the IC50 (second compound 0.01 µM) is reported as greater than 100 nM and the IC50 (second compound 0.0316 µM) is reported as 44.5 nM. It also gave an IC50 (second compound 0.1 µM) of less than 0.316 nM, an IC50 (second compound 0.316 µM) of less than 0.316 nM and an IC50 (second compound 1 µM) of less than 0.316 nM. It also gave a viability, T/C (second compound 0.00316 µM, first compound 0.000316 µM) of 94.9%, a viability, T/C (second compound 0.00316 µM, first compound 0.001 µM) of 84.1% and a viability, T/C (second compound 0.00316 µM, first compound 0.00316 µM) of 83.1%. The viability, T/C (second compound 0.00316 µM, first compound 0.01 µM) was 81.9%, the viability, T/C [1] was 84.9% and the viability, T/C [2] was 55.8%. It also gave a viability, T/C (second compound 0.01 µM, first compound 0.000316 µM) of 84.7%, a viability, T/C (second compound 0.01 µM, first compound 0.001 µM) of 80.7% and a viability, T/C (second compound 0.01 µM, first compound 0.00316 µM) of 74.1%. For the same compound, the viability, T/C (second compound 0.01 µM, first compound 0.01 µM) was 76.4%, the viability, T/C [3] was 65.8% and the viability, T/C [4] was 53.9%. For the same compound, the viability, T/C (second compound 0.0316 µM, first compound 0.000316 µM) was 62%, the viability, T/C (second compound 0.0316 µM, first compound 0.001 µM) was 62.1% and the viability, T/C (second compound 0.0316 µM, first compound 0.00316 µM) was 63.9%. For the same compound, the viability, T/C (second compound 0.0316 µM, first compound 0.01 µM) was 53.9%, the viability, T/C [5] was 52.5% and the viability, T/C [6] was 45%. The viability, T/C (second compound 0.1 µM, first compound 0.000316 µM) was 43.5%, the viability, T/C (second compound 0.1 µM, first compound 0.001 µM) was 45.4% and the viability, T/C (second compound 0.1 µM, first compound 0.00316 µM) was 46.5%. It also gave a viability, T/C (second compound 0.1 µM, first compound 0.01 µM) of 48.9%, a viability, T/C [7] of 40.5% and a viability, T/C [8] of 29.5%. For the same compound, the viability, T/C (second compound 0.316 µM, first compound 0.000316 µM) was 38.4%, the viability, T/C (second compound 0.316 µM, first compound 0.001 µM) was 32.7% and the viability, T/C (second compound 0.316 µM, first compound 0.00316 µM) was 39.3%. For the same compound, the viability, T/C (second compound 0.316 µM, first compound 0.01 µM) was 30.1%, the viability, T/C [9] was 24.4% and the viability, T/C [10] was 22.9%. The viability, T/C (second compound 1 µM, first compound 0.000316 µM) was 26.3%, the viability, T/C (second compound 1 µM, first compound 0.001 µM) was 33.2% and the viability, T/C (second compound 1 µM, first compound 0.00316 µM) was 27.5%. It also gave a viability, T/C (second compound 1 µM, first compound 0.01 µM) of 28.1%, a viability, T/C [11] of 22.2% and a viability, T/C [12] of 15.3%.

For `CC1(C)CCC(Nc2ncc(C(F)(F)F)c(-c3c[nH]c4c(P(C)(C)=O)c(C#N)ccc34)n2)CN1` (stereo unspecified) + Cc1nc(NC(=O)N2CCCC2C(N)=O)sc1-c1ccnc(C(C)(C)C(F)(F)F)c1, the IC50 (second compound 0.0316 µM) was less than 31.6 nM, the IC50 (second compound 0.1 µM) was less than 31.6 nM and the IC50 (second compound 0.316 µM) was less than 31.6 nM. The IC50 (second compound 1 µM) was less than 31.6 nM, the IC50 (second compound 3.16 µM) was less than 31.6 nM and the IC50 (second compound 10 µM) was less than 31.6 nM. For the same compound, the viability, T/C [5] was 36.8%, the viability, T/C [6] was 27% and the viability, T/C [13] was 30.7%. It also gave a viability, T/C [14] of 29.5%, a viability, T/C [15] of 28.8% and a viability, T/C [16] of 5.15%. The viability, T/C [7] was 27.4%, the viability, T/C [8] was 28.1% and the viability, T/C [17] was 27.4%. For the same compound, the viability, T/C [18] was 29.9%, the viability, T/C [19] was 29.9% and the viability, T/C [20] was 5.28%. It also gave a viability, T/C [9] of 23.7%, a viability, T/C [10] of 21.8% and a viability, T/C [21] of 21.5%. The viability, T/C [22] was 24.9%, the viability, T/C [23] was 21.8% and the viability, T/C [24] was 2.81%. It also gave a viability, T/C [11] of 16.4%, a viability, T/C [12] of 13.5% and a viability, T/C [25] of 16%. It also gave a viability, T/C [26] of 17.5%, a viability, T/C [27] of 18.1% and a viability, T/C [28] of 1.51%. The viability, T/C (second compound 3.16 µM, first compound 0.0316 µM) was 14.2%, the viability, T/C (second compound 3.16 µM, first compound 0.1 µM) was 11.1% and the viability, T/C (second compound 3.16 µM, first compound 0.316 µM) was 11.9%. The viability, T/C (second compound 3.16 µM, first compound 1 µM) was 12.9%, the viability, T/C (second compound 3.16 µM, first compound 3.16 µM) was 11.5% and the viability, T/C (second compound 3.16 µM, first compound 10 µM) was 1.02%. The viability, T/C (second compound 10 µM, first compound 0.0316 µM) was 7.35%, the viability, T/C (second compound 10 µM, first compound 0.1 µM) was 6.65% and the viability, T/C (second compound 10 µM, first compound 0.316 µM) was 6.01%. For the same compound, the viability, T/C (second compound 10 µM, first compound 1 µM) was 7.48%, the viability, T/C (second compound 10 µM, first compound 3.16 µM) was 6.58% and the viability, T/C (second compound 10 µM, first compound 10 µM) was 0.41%.

`CNC(=O)c1ccc(N2C(=S)N(c3ccc(C#N)c(C(F)(F)F)c3)C(=O)C2(C)C)cc1F` + COc1c(OCCCN2CCOCC2)ccc2c3n(c(=NC(=O)c4cnc(N)nc4)nc12)CCN3 was tested, and the IC50 (second compound 0.00316 µM) was greater than 10000 nM, the IC50 (second compound 0.01 µM) was greater than 10000 nM and the IC50 (second compound 0.0316 µM) was less than 31.6 nM. It also gave an IC50 (second compound 0.1 µM) of less than 31.6 nM, an IC50 (second compound 0.316 µM) of less than 31.6 nM and an IC50 (second compound 1 µM) of less than 31.6 nM. The viability, T/C [1] was 73.4%, the viability, T/C [2] was 81.8% and the viability, T/C (second compound 0.00316 µM, first compound 0.316 µM) was 70.3%. It also gave a viability, T/C (second compound 0.00316 µM, first compound 1 µM) of 76.1%, a viability, T/C (second compound 0.00316 µM, first compound 3.16 µM) of 77.7% and a viability, T/C (second compound 0.00316 µM, first compound 10 µM) of 68.2%. For the same compound, the viability, T/C [3] was 66.2%, the viability, T/C [4] was 61.2% and the viability, T/C (second compound 0.01 µM, first compound 0.316 µM) was 54.8%. It also gave a viability, T/C (second compound 0.01 µM, first compound 1 µM) of 54.8%, a viability, T/C (second compound 0.01 µM, first compound 3.16 µM) of 56.4% and a viability, T/C (second compound 0.01 µM, first compound 10 µM) of 50%. It also gave a viability, T/C [5] of 38.2%, a viability, T/C [6] of 40.2% and a viability, T/C [13] of 35.9%. It also gave a viability, T/C [14] of 36.6%, a viability, T/C [15] of 31.1% and a viability, T/C [16] of 30.9%. The viability, T/C [7] was 24.3%, the viability, T/C [8] was 27.4% and the viability, T/C [17] was 21.6%. The viability, T/C [18] was 24.9%, the viability, T/C [19] was 20.5% and the viability, T/C [20] was 22.4%. It also gave a viability, T/C [9] of 5.92%, a viability, T/C [10] of 6.55% and a viability, T/C [21] of 5.84%. It also gave a viability, T/C [22] of 6.05%, a viability, T/C [23] of 6.82% and a viability, T/C [24] of 4.31%. For the same compound, the viability, T/C [11] was 1.55%, the viability, T/C [12] was 1.44% and the viability, T/C [25] was 1.25%. The viability, T/C [26] was 1.13%, the viability, T/C [27] was 1.39% and the viability, T/C [28] was 1.47%.
